PubChem BioAssay (NCI)
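Protocol summary: plate cells (96-well), add compound at 5 concentrations, incubate 48 h, interpolate endpoints linearly. TGI denotes the concentration required for complete inhibition of growth.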

Columns and labels:
Experiment in all cases: NCI tumour cell line growth inhibition, 48 h
SF-268 CNS = system: SF-268 CNS
RPMI-8226 leukemia = system: RPMI-8226 leukemia
CCRF-CEM leukemia = system: CCRF-CEM leukemia
HT29 colon = system: HT29 colon
A549 NSCLC = system: A549 NSCLC
HCC-2998 colon = system: HCC-2998 colon
HCT-15 colon = system: HCT-15 colon
TK-10 renal = system: TK-10 renal
OVCAR-3 ovarian = system: OVCAR-3 ovarian
UACC-62 melanoma = system: UACC-62 melanoma
SNB-19 CNS = system: SNB-19 CNS
MALME-3M melanoma = system: MALME-3M melanoma

Row | SMILES | TGI (SF-268 CNS) | TGI (RPMI-8226 leukemia) | TGI (CCRF-CEM leukemia) | TGI (HT29 colon) | TGI (A549 NSCLC) | TGI (HCC-2998 colon) | TGI (HCT-15 colon) | TGI (TK-10 renal) | TGI (OVCAR-3 ovarian) | TGI (UACC-62 melanoma) | TGI (SNB-19 CNS) | TGI (MALME-3M melanoma)
1 | Cc1nc2ccccc2nc1NS(=O)(=O)c1ccc(N)cc1 | > 100 µM | > 100 µM | > 100 µM | > 100 µM | > 100 µM | > 100 µM | > 100 µM | > 100 µM | > 100 µM | > 100 µM | > 100 µM | > 100 µM
2 | O=S(=O)(CC1=NC2C=CC=CC2N=C1)NCc1ccccc1 (configuration not stated) | > 100 µM | > 100 µM | > 100 µM | > 100 µM | > 100 µM | > 100 µM | > 100 µM | > 100 µM | > 100 µM | > 100 µM | > 100 µM | > 100 µM
3 | N#Cc1cnn2c1n[n+]([O-])c1ccc(Cl)cc12 | > 40.3 µM | > 100 µM | 4.34 µM | 21.7 µM | > 79.8 µM | 3.46 µM | 4.36 µM | > 100 µM | 9.08 µM | 9.09 µM | 10.1 µM | 19.8 µM
4 | Cc1ccc(S(=O)(=O)N/N=C2\C(=O)C3CC2C(Cl)C3Cl)cc1 (configuration not stated) | > 100 µM | > 100 µM | > 100 µM | > 100 µM | > 100 µM | > 100 µM | > 100 µM | > 100 µM | > 100 µM | > 100 µM | > 100 µM | > 100 µM
5 | Fc1ccc(C(OCCN2CCC3CCC(C2)N3CCCc2ccccc2)c2ccc(F)cc2)cc1 (configuration not stated) | 19.8 µM | 5.11 µM | 11.3 µM | 13.7 µM | 19.4 µM | 4.05 µM | 14.5 µM | 15.7 µM | 14.8 µM | 18.2 µM | 22.3 µM | 5.46 µM
6 | CN(CCO)CC(=O)CC(O)(C(F)(F)F)C(F)(F)F | – | > 100 µM | 91.9 µM | > 100 µM | > 100 µM | > 100 µM | > 100 µM | > 100 µM | 87 µM | > 100 µM | > 100 µM | > 100 µM
7 | O=C1/C(=C/c2cccc([N+](=O)[O-])c2)CCCc2ccccc21 | 19.3 µM | 49 µM | 10.5 µM | 24 µM | 48 µM | 22 µM | 23 µM | 30.8 µM | 26.5 µM | 21.6 µM | 28.5 µM | 22.2 µM
8 | CCCCCCN(C(=O)Oc1ccccc1)C(C#N)c1ccccc1 (configuration not stated) | > 100 µM | > 100 µM | > 100 µM | > 100 µM | > 100 µM | > 100 µM | > 100 µM | > 100 µM | > 100 µM | > 100 µM | > 100 µM | > 100 µM
9 | Cc1c(-c2ccccc2)c(-c2ccc(OCCN(C)C)cc2)n2ccccc12 | 34.2 µM | 6.96 µM | 15.5 µM | 3.46 µM | 29 µM | 3.27 µM | 8.06 µM | 27.3 µM | 26.1 µM | 3.66 µM | 25.3 µM | 17.3 µM
